# According to patent US20220105183A1, “MICRO-NANO STRUCTURE FORMED BY SELF-ASSEMBLING ORGANIC SMALL MOLECULE COMPOUND AND USE THEREOF” (Qingdao University of Science and Technology, priority 2018, published 2022):
# What was measured:
# [1] = tested on: 4T1 cells; experiment: Fluorescence imaging in subcutaneous metastasis model mice; format: in vivo, nude mice; conditions: 200 μL (1 mg/mL) tail vein
# Method: (§1) The left side of 6-week-old female nude mice was injected subcutaneously with […] 4T1 cells to grow the tumor volume to 60 mm^3.
# In the experimental group, 200 μL of II-1 (1 mg/mL) was injected into the tail vein of mice. After injection, the living imager was used to monitor at different times. […] Then they were dissected, and the heart, liver, spleen, lung, kidney and tumor were imaged by fluorescence. […] This proves that Compound II-1 targets the tumor site very well.
# [2] = TEM, cryo-TEM and AFM of the self-assembled micro-nano structure; format: physicochemical
# Method: Taking the self-assembled micro-nano structure of Compound II-1 as an example, II-1 was dissolved in DMSO (also can be an organic solvent such as ethanol) to prepare a 2 mM storage solution, and a small amount of storage solution was added to deionized water to prepare 20 μM working solution. Took 10 μL and dropped it on copper mesh, observed and analyzed under transmission electron microscope (TEM), cryo-transmission electron microscope. Took 10 μL and dropped it on mica plate, observed and analyzed under atomic force microscope (AFM). In FIGS. 5, A, B, C and D were TEM photographs, cryo-transmission electron microscope photographs, AFM photographs, and AFM analysis data, respectively. According to the photographs and data, II-1 was self-assembled into nanosheets with a diameter of 40-70 nm and a thickness of 3.7-3.9 nm. […]
# [3] = Photothermal effect in vitro under 808 nm laser irradiation; format: physicochemical; conditions: for light-to-heat conversion efficiency: 808 nm laser; for temperature raised by / temperature reached: 808 nm laser 5 minutes; for temperature reached: from room temperature 30° C.
# Method: A total of 4 groups of samples, 3 mL was taken and added to a cuvette respectively, and the lid was sealed.
# The sample No. 2 was 10 μM II-1, and the specific preparation method is 3 mL deionized water plus 15 μL II-1 stock solution (2 mM, dissolved in DMSO);
# The sample No. 3 was 20 μM II-1, and the specific preparation method was that 3 mL deionized water was added 30 μL II-1 stock solution (2 mM, dissolved in DMSO);
# The sample No. 4 was 40 μM II-1, and the specific preparation method was that 3 mL deionized water was added 60 μL II-1 stock solution (2 mM, dissolved in DMSO).
# Each sample was irradiated with an 808 nm laser for 5 minutes, and the temperature data was recorded every 5 seconds with a thermal imager, and the temperature corresponding to the time was plotted in origin, as shown in the left figure of FIG. 8. […] The temperature of sample No. 2 increased from room temperature 30° C. to 54° C., and the temperature was raised by 24° C. The temperature of sample No. 3 increased from room temperature 30° C. to 62° C., and the temperature was raised by 32° C. The temperature of sample No. 4 increased from room temperature 30° C. to 77° C., and the temperature was raised by 47° C.
# Using a method similar to Example 8, 10 μM, 20 μM and 40 μM samples of II-16, II-17 and II-18 were prepared, respectively, they were irradiated under an 808 nm (2.6 W/cm-2) laser for 10 minutes. 40 μM II-16 to 18 samples can rise by 40° C., 36° C. and 18° C. respectively within 10 minutes under laser irradiation.
# Using a method similar to that in Example 8, three samples of 20 μM of 1-16, II-17 and II-18 in water were irradiated with 808 nm (2.6 W/cm-2) laser for 10 minutes, and the light-to-heat conversion efficiency calculation result thereof were shown in FIG. 10. […] And II-18 not only has poor light-heat effect, but also has low light-heat conversion efficiency, only 12.9%.
# [4] = tested on: 4T1 cells; experiment: Photoacoustic imaging in subcutaneous metastasis model mice; format: in vivo, nude mice; conditions: 200 μL (300 μmoL) tail vein, multispectral photoacoustic tomography
# Method: as §1
# 200 μL II-1 (300 μmoL) was injected into the mice of the experimental group through the tail vein. Monitored with multispectral photoacoustic tomography at different times. […] With the increase of time, until 24 hours, there was a photoacoustic signal at the tumor site.
# [5] = UV absorption, fluorescence emission and quantum yield in solutions of different polarities; format: physicochemical
# Method: The Compound II-1 of the present invention was prepared as a 2 mM storage solution in DMSO, and then 10 μL was added to 2 mL of solutions with different polarities (including water, dimethyl sulfoxide, N,N-dimethylformamide, methanol, ethanol, acetone, methylene chloride, acetonitrile), a UV spectrophotometer was used to test the UV absorption and to find the maximum absorption wavelength. The molar extinction coefficient of II-1 in solutions of different polarities was calculated from the ultraviolet absorption spectrum. Excited by the maximum absorption wavelength, the fluorescence emission spectrum was tested by a fluorescence spectrometer, the data was plotted with origin and the integral area was calculated. The fluorescence quantum yield φx, φx=φs(Fx/Fs)(As/Ax)(λexs/λexx)(nx/ns)^2, was calculated from the obtained data to obtain the characteristic parameters of Compound II-1 in solutions of different polarities (Table 3).
# [6] = 20 μM in deionized water, TEM/AFM
# [7] = sample No. 2, 10 μM in deionized water
# [8] = sample No. 3, 20 μM in deionized water
# [9] = sample No. 4, 40 μM in deionized water
smiles,measurement,setting,value
CCN1C(=CC=C2CCCC(C=CC3=C(C#N)C(=C(C#N)C#N)OC3(C)C)=C2Cl)C(C)(C)c2ccccc21 [II-1],whole-body fluorescence distribution,[1]; after 24 hours,all enriched in the tumor site
same,"fluorescence of dissected heart, liver, spleen, lung, kidney and tumor",[1]; dissected after 24 hours,"the fluorescence was very strong at tumor site, with weak fluorescence in the liver, and no fluorescence in other parts"
same,abnormalities in nude mice,[1]; within 24 hours,no abnormalities such as spasms and convulsions occurred
same,nanosheet diameter,[2]; [6],40-70 nm
same,nanosheet thickness,[2]; [6],3.7-3.9 nm
same,Morphology,"[2]; micro-nano structure in aqueous solution, AFM and TEM",nano-sheet
same,light-to-heat conversion efficiency,[3]; [7],60.4%
same,temperature raised by,[3]; [7],24 °C
same,temperature reached,"[3]; sample No. 2, 10 μM",54 °C
same,light-to-heat conversion efficiency,[3]; [8],61%
same,temperature raised by,[3]; [8],32 °C
same,temperature reached,"[3]; sample No. 3, 20 μM",62 °C
same,light-to-heat conversion efficiency,[3]; [9],60%
same,temperature raised by,[3]; [9],47 °C
same,temperature reached,"[3]; sample No. 4, 40 μM",77 °C
same,time at which a clear photoacoustic signal was found at the tumor site,[4],4 h
same,time until which there was a photoacoustic signal at the tumor site,[4],24 h
same,Φ (fluorescence quantum yield),"[5]; N,N-dimethylformamide",0.19%
same,ε*10^4,"[5]; N,N-dimethylformamide",7.92 M^−1cm^−1
same,λem,"[5]; N,N-dimethylformamide",853 nm
same,λmax,"[5]; N,N-dimethylformamide",844 nm
same,Φ (fluorescence quantum yield),[5]; acetone,0.29%
same,ε*10^4,[5]; acetone,8.91 M^−1cm^−1
same,λem,[5]; acetone,851 nm
same,λmax,[5]; acetone,832 nm
same,Φ (fluorescence quantum yield),[5]; acetonitrile,0.35%
same,ε*10^4,[5]; acetonitrile,9.15 M^−1cm^−1
same,λem,[5]; acetonitrile,850 nm
same,λmax,[5]; acetonitrile,832 nm
same,Φ (fluorescence quantum yield),[5]; dichloromethane,0.35%
same,ε*10^4,[5]; dichloromethane,8.55 M^−1cm^−1
same,λem,[5]; dichloromethane,850 nm
same,λmax,[5]; dichloromethane,834 nm
same,Φ (fluorescence quantum yield),[5]; dimethyl sulfoxide,0.12%
same,ε*10^4,[5]; dimethyl sulfoxide,10.24 M^−1cm^−1
same,λem,[5]; dimethyl sulfoxide,854 nm
same,λmax,[5]; dimethyl sulfoxide,848 nm
same,Φ (fluorescence quantum yield),[5]; ethanol,0.25%
same,ε*10^4,[5]; ethanol,10.74 M^−1cm^−1
same,λem,[5]; ethanol,851 nm
same,λmax,[5]; ethanol,828 nm
same,Φ (fluorescence quantum yield),[5]; methanol,0.19%
same,ε*10^4,[5]; methanol,11.24 M^−1cm^−1
same,λem,[5]; methanol,850 nm
same,λmax,[5]; methanol,830 nm
same,Φ (fluorescence quantum yield),[5]; water,0.11%
same,ε*10^4,[5]; water,2.76 M^−1cm^−1
same,λem,[5]; water,840 nm
same,λmax,[5]; water,730 nm
